# Measurements published in US10752626B2, “Iso-citrate dehydrogenase (IDH) inhibitor” (SHANGHAI METON PHARMACEUTICAL CO., LTD, priority 2016, dated 2020).
# Legend:
# IDH1 R132C = IDH1 R132C (Homo sapiens (Human), UniProt O75874, R132C); test: Biochemical assay for inhibition of mutant IDH1 R132C; conditions: tested in triplet
# Source text: The present disclosure provides a biochemical assay method for detecting the IDH inhibition and selectivity of the compounds by detecting IDH enzyme activity directly.
# Wild-type IDH enzyme could convert NADP^+ to NADPH when it catalyzes the α-KG producing reaction. Mutant IDH enzyme could convert NADPH to NADP^+ when it catalyzes the D-2-HG producing reaction. So the activity of wild-type and mutant IDH1/2 could be measured by monitoring NADPH level change: in the reaction catalyzed by wild-type IDH1/2, the newly generated NADPH is utilized instantly by coupled diaphorase-resazurin reaction to generate resorufin which is fluorescent (at Excitation 544 nm, Emission 590 nm) and thus NADPH is monitored indirectly; while in the reaction catalyzed by mutant IDH1/2, NADPH is directly monitored as it is fluorescent (at Excitation 340 nm, Emission 460 nm). By monitoring the change of NADPH level in the reaction, the enzyme activity could be determined rapidly and efficiently, IC50 of a compound could also be assayed.
# The test compounds were prepared into 50 mM stock solutions in DMSO and stored at −20° C. Each test compound stock was further diluted to obtain a 100× stock solution at a concentration of 200 μM, 100 μM, 50 μM, 25 μM, 12.5 jμM, 6.25 μM and 3.125 μM, respectively, for the final use on the day of test.
# Inhibition of Mutant IDHJ (R132H or R132C):
# Solution A was prepared by combining 1 M Tris-HCl pH7.5 (300 μL), 5 M NaCl (450 μL), 1 M MgCl2 (150 μL), 1 M DTT (15 μL), 20 mg/mL BSA (37.5 μL), 20 mM NADPH (20 μL), and 0.5 mM α-KG (40 μL), followed by adding deionized water to a final volume of 15 mL.
# Reaction buffer was prepared by combining 1 M Tris-HCl pH 7.5 (200 μL), 5 M NaCl (300 μL), 1 M MgCl2 (100 μL), 1 M DTT (10 μL) and 20 mg/mL BSA (25 μL), followed by adding deionized water to a final volume of 10 mL.
# Solution B was prepared by combining the reaction buffer (5 mL) and […] IDH1-R132H (5.21 μL) or 107 μM IDH1-R132C (4.67 μL).
# 148 μL Solution A was added into each sample well of a 96-well plate P1, and then 2 μL of the test compound solution at each concentration and 2 μL of DMSO (negative control/blank) were added into individual sample well respectively. 50 μL of Solution B was added into each of the sample wells having test compounds and one sample well having DMSO only, and 50 μL of reaction buffer was added into another sample well having DMSO only, respectively. P1 was put into BioTek Synergy H4 Microplate reader (BioTek Instruments Inc., Winooski, U.S.), and the program was set as follows: 37° C., shake plate 5 seconds, run kinetic mode, total detection time 20 min, detection intervals 40 seconds, detection mode fluorescence (at Excitation 340 nm, Emission 460 nm). The data were exported, the relative enzyme activity and the half-maximal inhibitory concentration (IC50) for the test compound were calculated. Relative enzyme activity was calculated as the absolute value of the slope of the Emission 460 reads of each well plotted against time (which represents the conversion rate of ca-KG to 2-HG through IDH1 modulated utilization of NADPH). The Dose-response curve was drawn and the IC50 was calculated via fitting. The IDH inhibition and selectivity of each test compound can be evaluated according to the effect of the compounds on the IDH enzyme activity.
# The IDH inhibition activity of the compounds were assessed according to Test 5 of the Biological evaluation section. The test for mutant IDH1 R132H/R132C inhibition of each compound was carried out in triplet. For IDH1 R132H, the enzyme activity of exemplary Compounds 16, 21, 22, 23, 24 and 31 is plotted as a function of logarithm of the concentration of the compound in FIGS. 8A-8C, 9A-9C, 10A-10C, 11A-11C, 12A-12C and 13A-13C, respectively. […]
# [1] = Metabolic stability in dog liver microsome; conditions: for K: Mean; for microsomal CLint at 1 μM / half-life at 1 μM: microsomes, pH 7.4
# Protocol: The liver microsomes of mouse, rat, dog, monkey and human were purchased from Corning Inc., and were stored at −60° C. prior to use. The acetonitrile and NADPH were purchased from Honeywell International Inc. (New Jersey, U.S.) and Roche Inc. (Basel, Swiss).
# Reactions were initiated by adding NADPH to a final concentration of 1 mM. The final volume of each reaction mixture was 0.2 ml, and all reactions were performed in duplicate. At each set time point (0, 5, 15, 30 and 60 min), a small aliquot (e.g., 20 μl) was transferred from the reaction system into ice-cold internal standard (IS) containing acetonitrile to quench the reaction and to precipitate the protein. After vortex and centrifuge at 3700 rpm for 10 min, the supernatant was injected into LC-MS/MS for analysis.
# In vitro microsomal clearance was estimated based on determination of elimination half-life (T1/2) of compounds disappearance from their initial concentrations. Peak area ratios of each compound (test or control) to IS was calculated. Ln (% Control) versus Incubation Time (min) curve was plotted, and the slope of a linear fitting line was calculated. Drug elimination rate constant k (min^−1), T1/2 (min), and in vitro intrinsic clearance CLint (mL·min^−1·mg^−1 proteins) was calculated according to the following equations: k=−slope T1/2=0.693/k CLint=k/Cprotein where Cprotein (mg·mL^−1) is the microsomal protein concentration in the incubation system. Test 3: Metabolic Stability Assay in Mouse Plasma
# In this study, the metabolic stability of the compounds was assessed in mouse, rat, dog, monkey and human liver microsome according to the method disclosed in Test 2 of the Biological evaluation section.
# Chain of IDH1 R132C (O75874 whole entry R132C): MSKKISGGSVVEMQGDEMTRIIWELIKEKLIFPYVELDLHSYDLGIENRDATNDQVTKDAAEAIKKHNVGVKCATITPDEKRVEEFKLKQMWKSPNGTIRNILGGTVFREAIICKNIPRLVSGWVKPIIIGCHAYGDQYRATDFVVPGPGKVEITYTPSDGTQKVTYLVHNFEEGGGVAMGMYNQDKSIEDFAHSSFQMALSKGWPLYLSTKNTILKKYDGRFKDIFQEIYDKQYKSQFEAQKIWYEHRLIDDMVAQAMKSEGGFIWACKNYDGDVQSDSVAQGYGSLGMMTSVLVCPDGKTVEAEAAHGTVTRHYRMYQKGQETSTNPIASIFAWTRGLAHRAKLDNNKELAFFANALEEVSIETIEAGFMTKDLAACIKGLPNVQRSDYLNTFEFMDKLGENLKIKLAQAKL
SMILES,IC50 (IDH1 R132C) [µM],other results
"CCN1Cc2c(ccnc2N[C@@H](C)c2ccc(Br)cc2)C1=O [Compound 1, (S)-4-(1-(4-bromophenyl)ethylamino)-2-ethyl-2,3-dihydro-1H-pyrrolo[3,4-c]pyridin-1-one]",10 to 15,
"CCN1Cc2c(ccnc2N[C@@H](C)c2ccc(F)cc2)C1=O [Compound 2, (S)-2-ethyl-4-(1-(4-fluorophenyl)ethylamino)-2,3-dihydro-1H-pyrrolo[3,4-c]pyridin-1-one]",10 to 15,
"CCN1Cc2c(ccnc2N[C@@H](C)c2ccc(C)cc2)C1=O [Compound 3, (S)-2-ethyl-4-(1-p-tolylethylamino)-2,3-dihydro-1H-pyrrolo[3,4-c]pyridin-1-one]",10 to 15,
"C[C@H](Nc1nccc2c1CN(C1CC1)C2=O)c1ccccc1 [Compound 4, (S)-2-cyclopropyl-4-(1-phenylethylamino)-2,3-dihydro-1H-pyrrolo[3,4-c]pyridin-1-one]",10 to 15,
"CCCCN1Cc2c(ccnc2N[C@@H](C)c2ccccc2)C1=O [Compound 5, (S)-2-butyl-4-(1-phenylethylamino)-2,3-dihydro-1H-pyrrolo[3,4-c]pyridin-1-one]",10 to 15,
"C[C@H](Nc1nccc2c1CN(Cc1ccccc1)C2=O)c1ccccc1 [Compound 6, (S)-2-benzyl-4-(1-phenylethylamino)-2,3-dihydro-1H-pyrrolo[3,4-c]pyridin-1-one]",10 to 15,
"COc1ccc(CN2Cc3c(ccnc3N[C@@H](C)c3ccccc3)C2=O)cc1 [Compound 7, (S)-2-(4-methoxybenzyl)-4-(1-phenylethylamino)-2,3-dihydro-1H-pyrrolo[3,4-c]pyridin-1-one]",10 to 15,
"CC(C)N1Cc2c(ccnc2N[C@@H](C)c2ccccc2)C1=O [Compound 8, (S)-2-isopropyl-4-(1-phenylethylamino)-2,3-dihydro-1H-pyrrolo[3,4-c]pyridin-1-one]",10 to 15,
"COCCN1Cc2c(ccnc2N[C@@H](C)c2ccccc2)C1=O [Compound 9, (S)-2-(2-methoxyethyl)-4-(1-phenylethylamino)-2,3-dihydro-1H-pyrrolo[3,4-c]pyridin-1-one]",10 to 15,
"CCN1Cc2c(ccnc2N[C@@H](C)c2ccccc2)C1=O [Compound 10, (S)-2-ethyl-4-(1-phenylethylamino)-2,3-dihydro-1H-pyrrolo[3,4-c]pyridin-1-one]",10 to 15,
"CCN1Cc2c(ccnc2N[C@@H](C)c2ccc(OC)cc2)C1=O [Compound 11, (S)-2-ethyl-4-(1-(4-methoxyphenyl)ethylamino)-2,3-dihydro-1H-pyrrolo[3,4-c]pyridin-1-one]",10 to 15,
"CCOC(=O)c1ccc([C@H](C)Nc2nccc3c2CN(CC)C3=O)cc1 [Compound 12, (S)-ethyl-4-(1-(2-ethyl-1-oxo-2,3-dihydro-1H-pyrrolo[3,4-c]pyridin-4-ylamino)ethyl)benzoate]",10 to 15,
"CCN1Cc2c(ccnc2N[C@@H](C)c2ccc(C(=O)Nc3ccccc3)cc2)C1=O [Compound 13, (S)-4-(1-(2-ethyl-1-oxo-2,3-dihydro-1H-pyrrolo[3,4-c]pyridin-4-ylamino)ethyl)-N-phenylbenzamide]",10 to 15,
"CCN1Cc2c(ccnc2N[C@@H](C)c2ccc(-c3cn(C)nn3)cc2)C1=O [Compound 14, (S)-2-ethyl-4-(1-(4-(1-methyl-1H-1,2,3-triazol-4-yl)phenyl)ethylamino)-2,3-dihydro-1H-pyrrolo[3,4-c]pyridin-1-one]",10 to 15,
"CCN1Cc2c(ccnc2N[C@@H](C)c2ccc(Oc3cccc(C)c3)cc2)C1=O [Compound 15, (S)-2-ethyl-4-((1-(4-(m-tolyloxy)phenyl)ethyl)amino)-2,3-dihydro-1H-pyrrolo[3,4-c]pyridin-1-one]",≤ 1.5,
"CCN1Cc2c(ccnc2N[C@@H](C)c2ccc(Oc3ccccc3C)cc2)C1=O [Compound 17, (S)-2-ethyl-4-(1-(4-(o-tolyloxy)phenyl)ethylamino)-2,3-dihydro-1H-pyrrolo [3,4-c]pyridin-1-one]",≤ 1.5,
"CCN1Cc2c(ccnc2N[C@@H](C)c2ccc(Oc3ccccc3)cc2)C1=O [Compound 18, (S)-2-ethyl-4-(1-(4-phenoxyphenyl)ethylamino)-2,3-dihydro-1H-pyrrolo[3,4-c]pyridin-1-one]",≤ 1.5,
"CCN1Cc2c(ccnc2N[C@@H](C)c2ccc(Oc3ccc(OC)cc3)cc2)C1=O [Compound 19, (S)-2-ethyl-4-(1-(4-(4-methoxyphenoxy)phenyl)ethylamino)-2,3-dihydro-1H-pyrrolo[3,4-c]pyridin-1-one]",≤ 1.5,
"CCN1Cc2c(ccnc2N[C@@H](C)c2ccc(Oc3ccc(F)cc3)cc2)C1=O [Compound 20, (S)-2-ethyl-4-(1-(4-(4-fluorophenoxy)phenyl)ethylamino)-2,3-dihydro-1H-pyrrolo[3,4-c]pyridin-1-one]",1.5 to 10,
"Cc1ncc2n1-c1ccc(Cl)cc1C(c1ccccc1F)=NC2 [Positive control, Midazolam, reference compound]",,K ([1]; dog liver microsome): 0.140 min⁻¹; microsomal CLint at 1 μM ([1]; dog): 702 µL/min/mg; K ([1]; human liver microsome): 0.0612 min⁻¹; half-life at 1 μM ([1]; human): 11.3 min; microsomal CLint at 1 μM ([1]; human): 306 µL/min/mg; K ([1]; monkey liver microsome): 0.211 min⁻¹; half-life at 1 μM ([1]; monkey): 3.29 min; microsomal CLint at 1 μM ([1]; monkey): 1050 µL/min/mg; K ([1]; mouse liver microsome): 0.0964 min⁻¹; half-life at 1 μM ([1]; mouse): 7.19 min; microsomal CLint at 1 μM ([1]; mouse): 482 µL/min/mg; K ([1]; rat liver microsome): 0.174 min⁻¹; half-life at 1 μM ([1]; rat): 3.98 min; microsomal CLint at 1 μM ([1]; rat): 871 µL/min/mg
